Test results reported in US20030134824A1, “Beta-cyclodextrin dimers and phthalocyanines and uses thereof” (priority 2001, published 2003).

Legend:
[1] = Microcalorimetric titration with p-tert-butylbenzoic acid; assay type: binding
Experimental: β-cyclodextrin (CD) monomer 23 (6.4 mg, 0.005 mmol) was dissolved in 0.20 M pH 9.0 Na2CO3/NaHCO3 buffer (5.00 mL) to make a 1.0 mM solution. p-tert-Butylbenzoic acid (11.0 mg, 0.062 mmol) was dissolved in 6.16 mL of the same buffer to make a 10.0 mM solution. Both solutions were degassed under reduced pressure with a sonicator for 5 minutes immediately prior to the binding study. The β-CD monomer 23 solution (2.50 mL) was put into the sample cell compartment of an Omega microcalorimeter, whereas the p-tert-butyl-benzoic acid was loaded in a 250 μL syringe and then assembled onto the calorimeter. The system was equilibrated until RMS error was less than 5×10^−3 with the syringe spinning at 400 rpm. The p-tert-butylbenzoic acid solution was then injected into the cell in 25 injections (10 μL, 7 seconds per injection). […] Injection data were automatically collected by the computer, and the data was analyzed by ORIGIN software with the single-binding-site model. […]
β-Cyclodextrin (4.0 mg, 0.0035 mmol) was dissolved in 0.20 M pH 9.0 Na2CO3/NaHCO3 buffer (3.53 mL) to make a 1.0 mM solution. p-tert-butyl-benzoic acid (10.0 mg, 0.056 mmol) was dissolved in 5.60 mL of the same buffer to make a 10.0 mM solution. […] Injection data were automatically collected by the computer, and the data was analyzed by ORIGIN software with the single-binding-site model. […]

[2] = Binding of BNS to β-cyclodextrin dimers by fluorescence titration; settings: water, ca. 25° C.
Experimental: Binding constants for a few of the possible pairs were determined by a fluorescence competition method previously used for cyclodextrin dimers, competing the substrate of interest with 2-(p-tert-butylanilino)naphthalene-6-sulfonic acid 22, (termed BNS, Breslow et al. 1989). [drawing 26]
BNS is fluorescent when bound into a hydrophobic cavity such as that of a cyclodextrin, but only weakly fluorescent in water solution. Only the sulfonated phthalocyanines were soluble enough for this method.
The binding constant of BNS 22 to each dimer was determined as previously (Breslow et al. 1989, Ruebner et al. 1999) by titrating BNS into a dimer solution in a fluorescence cell, then exciting this solution at 330 nm and measuring the fluorescent emission at 438 nm. The binding constant of phthalocyanine to dimer was measured by titration of BNS into a 1:1 mixture of dimer and phthalocyanine. […] The binding constant of BNS to each dimer is given by K=intercept/slope, and the binding constant of the phthalocyanine can be calculated as KI=(K/K′−1)/[I], where K′ is the apparent binding constant of BNS to the dimer in presence of phthalocyanine, and [I] is the concentration of phthalocyanine (Ruebner et al. 1996). […]
The binding constant for BNS to cyclodextrin dimer 21 was determined by the fluorescence emission method. […] The area under the peak between 400 and 500 nm was measured for each addition. […]

[3] = Photochemical cleavage of the dimers by bound phthalocyanines, monitored by 1H NMR; assay type: physicochemical; settings: dimer 2.5 mM, photosensitizer 0.14 mM, 5% DMSO-d6 in D2O, O2, light >540 nm, 25° C.
Experimental: All of the photocleavage reactions were carried out using the same apparatus, as described previously (U.S. Ser. No. 09/352,529, filed Jul. 13, 1999, now allowed; Ruebner et al. 1999). A halogen lamp (50 W) was set up with a 540 nm cut-off filter and a focusing lens. The NMR tube in which the reactions were run was placed in the most strongly focused area, and oxygen was bubbled continuously through the solution while the photocleavage reactions were run. To monitor the reactions, ^1H NMR's were taken at regular intervals, whereby the disappearance of the alkene peaks and the appearance of the single formyl peak could be observed.
The dimers were at a concentration of 2.5 mM while the photosensitizers were at 0.14 mM in 5% DMSO-d6 in D2O. Here dimer 21 was cleaved using phthalocyanine 11. It can clearly be seen that the amount of alkene (doublet at ˜6.2 ppm) decreases and the formyl peak (singlet at ˜8.4 ppm) appears as the reaction progresses, and that no other peaks are seen in this area. […]
To a solution of β-cyclodextrin dimer 17 (5.9 mg, 2.35×10^−6 mol) and potassium carbonate (2 mg) in D2O (1.00 mL) was added a 3 mM solution of phthalocyanine 6 (0.17 mg, 1.50×10^−7 mol) in DMSO-d6 (50 μL). […] The reaction was monitored by ^1H NMR, by observance of the disappearance of the alkene peaks and the appearance of the formyl peak. […]

| Compound | binding constant with 4-tert-butylbenzoic acid [1] | binding constant of BNS to the dimer [2] [M⁻¹] | time for 50% cleavage of the dimer by phthalocyanine 6 [3] [min] | time for 50% cleavage of the dimer by phthalocyanine 14 [3] [min] |
| --- | --- | --- | --- | --- |
| OC[C@H]1O[C@@H]2O[C@H]3[C@H](O)[C@@H](O)[C@@H](O[C@H]4[C@H](O)[C@@H](O)[C@@H](O[C@H]5[C@H](O)[C@@H](O)[C@@H](O[C@H]6[C@H](O)[C@@H](O)[C@@H](O[C@H]7[C@H](O)[C@@H](O)[C@@H](O[C@H]8[C@H](O)[C@@H](O)[C@@H](O[C@H]1[C@H](O)[C@H]2O)O[C@@H]8CO)O[C@@H]7CO)O[C@@H]6CO)O[C@@H]5CO)O[C@@H]4CO)O[C@@H]3CO [β-cyclodextrin] | 1.7×10^4 M^− |  |  |  |
| CNC(=O)CCCS/C=C\SCCCC(=O)NC [Dimer 18] |  | 418000 | 55 | 6 |
